Test results taken from PMC5107250, “Identification of Novel Inhibitors against Coactivator Associated Arginine Methyltransferase 1 Based on Virtual Screening and Biological Assays” (BioMed Research International, 2016).

Experiments:
[1] = tested on: K562 (myeloid leukemia); assay: Cell viability (MTT) assay, K562; assay type: cell-based, human; settings: 24 hrs, 48 hrs, 72 hrs, Figure 2
Method: (§1) The three cell lines, HELA, K562, and MCF7, were purchased from the American Type Culture Collection (ATCC). HELA, K562, and MCF7 were cultured in DMEM (Life Technologies) supplemented with 10% FBS. All of the cell lines were seeded into 96-well plates at an appropriate density and then treated with compounds of different concentrations or DMSO control. After 24 hrs, 48 hrs, and 72 hrs, cell viabilities were measured by the MTT assay. It has been reported that CARM1 was a potential target in many cancers; thus it is well accepted that inhibiting CARM1 could affect cancer cell proliferation. In this study, three human tumor cell lines including HELA (cervical cancer), K562 (myeloid leukemia), and MCF7 (breast cancer) were chosen to evaluate the cellular activity of the two compounds DC_C11 and DC_[…]. Sinefungin, a pan-PRMTs inhibitor which has the same scaffold as the cofactor SAM does, was evaluated for control experiment. […] In the three cell lines, DC_[…] presents better antiproliferative cellular activity, which is consistent with their inhibitory activity in vitro. Combined with the biological data in vitro, we confirmed that compounds DC_C11 and DC_[…] are cell membrane permeable, which presented promising activity both in vitro and in cellular environment.  Figure 2 Antiproliferative effect of DC_C11 and DC_[…] on several cancer cell lines. (a-c) Time-dependent and dose-dependent inhibitory effect of DC_C11 on HELA, K562, and MCF7 within 24 hrs, 48 hrs, and 72 hrs, respectively. (d-f) Time-dependent and dose-dependent inhibitory effect of DC_[…] on HELA, K562, and MCF7 within 24 hrs, 48 hrs, and 72 hrs, respectively. (g-i) Time-dependent and dose-dependent inhibitory effect of Sinefungin on HELA, K562, and MCF7 within 24 hrs, 48 hrs, and 72 hrs, respectively.

[2] = tested on: HELA (cervical cancer); assay: Cell viability (MTT) assay, HELA; assay type: cell-based, human; settings: 24 hrs, 48 hrs, 72 hrs, Figure 2
Method: as §1

[3] = biological target: T1, CARM1 (Homo sapiens, UniProt Q86X55); assay: AlphaLISA CARM1 enzyme inhibition assay; assay type: biochemical; settings: biotinylated H3 peptide 50 nM, SAM 300 nM, enzyme 0.1 nM, in duplicate
T1 sequence (Q86X55 1-608): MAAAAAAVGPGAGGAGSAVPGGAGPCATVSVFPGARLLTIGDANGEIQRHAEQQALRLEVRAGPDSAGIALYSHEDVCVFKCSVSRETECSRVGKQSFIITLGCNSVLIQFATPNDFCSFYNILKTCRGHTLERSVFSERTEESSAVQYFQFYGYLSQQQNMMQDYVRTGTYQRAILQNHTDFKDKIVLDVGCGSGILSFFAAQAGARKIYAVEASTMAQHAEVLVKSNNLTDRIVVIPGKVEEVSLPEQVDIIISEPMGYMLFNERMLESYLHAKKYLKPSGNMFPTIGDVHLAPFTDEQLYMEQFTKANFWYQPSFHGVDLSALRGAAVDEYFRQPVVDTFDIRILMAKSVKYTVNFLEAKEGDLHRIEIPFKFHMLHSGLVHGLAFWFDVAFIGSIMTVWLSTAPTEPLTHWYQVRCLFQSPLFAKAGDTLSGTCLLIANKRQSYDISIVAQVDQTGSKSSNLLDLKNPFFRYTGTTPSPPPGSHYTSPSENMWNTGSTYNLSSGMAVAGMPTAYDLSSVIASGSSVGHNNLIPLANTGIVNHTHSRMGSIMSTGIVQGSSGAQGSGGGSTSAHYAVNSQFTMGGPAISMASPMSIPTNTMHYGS
Method: The enzymatic inhibitory activities of compounds were measured by the AlphaLISA assay provided by Shanghai ChemPartner Co., Ltd. The compounds selected from virtual screening were transferred to the assay plate (white opaque OptiPlate-384, PerkinElmer). 5 μL of enzyme solution (final concentration was 0.1 nM) or pH 8.0 tris-based assay buffer (for Min well) was added to the assay plate and then centrifuged at 1000 rpm for 1 min. Afterwards, the assay plate was incubated for 15 min at room temperature (RT). Then 5 μL of biotinylated H3 peptide/SAM mix (final concentrations were 50 nM and 300 nM, resp.) was added to the assay plate, which was covered with TopSeal-Afilm and incubated for 1 h at RT after centrifuging at 1000 rpm for 1 min (DMSO final concentration 1%). Next, 5 μL of acceptor beads (final concentration was 10 μg/mL) was added to stop the enzymatic reaction. […] Finally, the mixtures were incubated for 30 min at RT, and the signal was read in alpha mode using EnVision readers. The IC50 values were calculated by fit inhibition rates under different concentrations into GraphPad Prism 5.0 software. […] The end point was read in alpha mode using EnVision readers, and IC50 values were calculated in GraphPad Prism 5.0 software.

[4] = biological target: PRMT6 (Homo sapiens, UniProt Q96LA8); assay: In vitro enzyme selectivity assay, PRMT6; assay type: biochemical; settings: in duplicate
Sequence of PRMT6 (Q96LA8 whole entry, species assumed): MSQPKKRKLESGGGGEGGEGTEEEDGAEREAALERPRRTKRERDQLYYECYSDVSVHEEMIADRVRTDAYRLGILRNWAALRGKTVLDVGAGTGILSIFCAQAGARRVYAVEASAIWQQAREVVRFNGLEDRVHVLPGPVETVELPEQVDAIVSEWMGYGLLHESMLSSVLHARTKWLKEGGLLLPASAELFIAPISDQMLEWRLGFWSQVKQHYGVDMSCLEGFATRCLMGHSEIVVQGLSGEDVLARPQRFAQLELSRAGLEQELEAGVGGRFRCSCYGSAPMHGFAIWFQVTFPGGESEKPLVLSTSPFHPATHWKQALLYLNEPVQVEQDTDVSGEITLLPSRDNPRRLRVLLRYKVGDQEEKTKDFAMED
Method: (§2) The enzymatic inhibitory activities of compounds were measured by the AlphaLISA assay provided by Shanghai ChemPartner Co., Ltd. The compounds selected from virtual screening were transferred to the assay plate (white opaque OptiPlate-384, PerkinElmer). 5 μL of enzyme solution (final concentration was 0.1 nM) or pH 8.0 tris-based assay buffer (for Min well) was added to the assay plate and then centrifuged at 1000 rpm for 1 min. Afterwards, the assay plate was incubated for 15 min at room temperature (RT). Then 5 μL of biotinylated H3 peptide/SAM mix (final concentrations were 50 nM and 300 nM, resp.) was added to the assay plate, which was covered with TopSeal-Afilm and incubated for 1 h at RT after centrifuging at 1000 rpm for 1 min (DMSO final concentration 1%). Next, 5 μL of acceptor beads (final concentration was 10 μg/mL) was added to stop the enzymatic reaction. After incubating at room temperature for 60 min, 10 μL of donor beads was added (final concentration was 10 μg/mL) in subdued light and then centrifuged at 1000 rpm for 1 min. Finally, the mixtures were incubated for 30 min at RT, and the signal was read in alpha mode using EnVision readers. The IC50 values were calculated by fit inhibition rates under different concentrations into GraphPad Prism 5.0 software. […]

[5] = biological target: PRMT1 (Homo sapiens, UniProt Q99873); assay: In vitro enzyme selectivity assay, PRMT1; assay type: biochemical; settings: in duplicate
Sequence of PRMT1 (Q99873 whole entry, species assumed): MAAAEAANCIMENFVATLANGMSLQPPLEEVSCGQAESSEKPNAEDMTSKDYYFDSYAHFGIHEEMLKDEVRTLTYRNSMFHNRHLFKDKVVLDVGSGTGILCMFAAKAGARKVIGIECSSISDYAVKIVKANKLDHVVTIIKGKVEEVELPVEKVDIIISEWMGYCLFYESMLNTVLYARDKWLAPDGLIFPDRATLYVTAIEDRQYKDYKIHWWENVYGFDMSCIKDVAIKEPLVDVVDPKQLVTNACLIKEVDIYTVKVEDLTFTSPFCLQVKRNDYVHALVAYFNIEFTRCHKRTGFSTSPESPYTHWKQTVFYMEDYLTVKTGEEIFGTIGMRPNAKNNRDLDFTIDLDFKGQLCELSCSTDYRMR
Method: as §2

[6] = tested on: MCF7 (breast cancer); assay: Cell viability (MTT) assay, MCF7; assay type: cell-based, human; settings: 24 hrs, 48 hrs, 72 hrs, Figure 2
Method: as §1

[7] = biological target: PRMT5 (Homo sapiens, UniProt O14744); assay: In vitro enzyme selectivity assay, PRMT5; assay type: biochemical; settings: at a concentration of 50 μM; read-out: inhibition rate of PRMT5
Sequence of PRMT5 (O14744 whole entry, species assumed): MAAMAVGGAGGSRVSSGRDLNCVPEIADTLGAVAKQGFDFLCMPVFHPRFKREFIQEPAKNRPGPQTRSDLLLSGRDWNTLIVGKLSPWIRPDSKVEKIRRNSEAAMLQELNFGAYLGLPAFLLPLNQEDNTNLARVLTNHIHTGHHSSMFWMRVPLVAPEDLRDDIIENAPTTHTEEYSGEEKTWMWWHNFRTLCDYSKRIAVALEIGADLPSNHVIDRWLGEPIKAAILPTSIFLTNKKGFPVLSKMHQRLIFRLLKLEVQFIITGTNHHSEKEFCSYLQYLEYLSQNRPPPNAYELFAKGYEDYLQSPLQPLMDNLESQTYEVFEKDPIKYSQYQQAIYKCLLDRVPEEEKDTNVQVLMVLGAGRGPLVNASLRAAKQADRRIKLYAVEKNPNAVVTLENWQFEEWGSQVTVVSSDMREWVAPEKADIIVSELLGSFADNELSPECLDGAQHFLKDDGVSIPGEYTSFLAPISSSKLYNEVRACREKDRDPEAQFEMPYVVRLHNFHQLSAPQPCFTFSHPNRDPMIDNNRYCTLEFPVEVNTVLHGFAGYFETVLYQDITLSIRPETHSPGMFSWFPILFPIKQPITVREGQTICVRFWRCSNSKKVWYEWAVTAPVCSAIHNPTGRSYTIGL
Sequence of PRMT5 (Q9BQA1 whole entry partner, species assumed): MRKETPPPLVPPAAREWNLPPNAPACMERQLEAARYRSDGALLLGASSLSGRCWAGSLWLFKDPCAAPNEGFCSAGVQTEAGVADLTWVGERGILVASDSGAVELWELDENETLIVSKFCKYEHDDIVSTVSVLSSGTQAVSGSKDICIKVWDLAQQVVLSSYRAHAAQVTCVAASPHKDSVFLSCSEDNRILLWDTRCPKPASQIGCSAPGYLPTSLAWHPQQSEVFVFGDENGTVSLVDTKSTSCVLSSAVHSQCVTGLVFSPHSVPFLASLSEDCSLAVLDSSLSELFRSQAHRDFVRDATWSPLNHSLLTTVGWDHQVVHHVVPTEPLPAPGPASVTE
Method: as §2

O=C(c1ccccc1)c1c2c(cc3sc4ccccc4[n+]13)-c1cccc3cccc-2c13 [DC_C11]
Antiproliferative effect on K562 [1]: inhibit proliferation of cancer cells in a time-dependent and dose-dependent manner | Antiproliferative effect on HELA [2]: inhibit proliferation of cancer cells in a time-dependent and dose-dependent manner | IC50 [3]: 15 µM | IC50 [4]: 41 µM | IC50 [5]: 36 µM | Antiproliferative effect on MCF7 [6]: inhibit proliferation of cancer cells in a time-dependent and dose-dependent manner

CCOC(=O)c1c2c3ccccc3c3ccccc3c2cc2[n+]1CCc1ccccc1-2 [DC_C66]
Antiproliferative effect on K562 [1]: inhibit proliferation of cancer cells in a time-dependent and dose-dependent manner | inhibition at 50 µM [7]: < 50% | Antiproliferative effect on HELA [2]: inhibit proliferation of cancer cells in a time-dependent and dose-dependent manner | IC50 [3]: 1.8 µM | IC50 [4]: 47 µM | IC50 [5]: 21 µM | Antiproliferative effect on MCF7 [6]: inhibit proliferation of cancer cells in a time-dependent and dose-dependent manner

Nc1ncnc2c1ncn2[C@@H]1O[C@H](C[C@@H](N)CC[C@H](N)C(=O)O)[C@@H](O)[C@H]1O [Sinefungin, reference compound]
Antiproliferative effect on K562 [1]: weaker inhibitory activity | Antiproliferative effect on HELA [2]: weaker inhibitory activity | Antiproliferative effect on MCF7 [6]: weaker inhibitory activity
